In ChEMBL document CHEMBL4823282, “Novel Broad-Spectrum Antimicrobial Peptide Derived from Anoplin and Its Activity on Bacterial Pneumonia in Mice” (J Med Chem, 2021):
In brackets after ≈: the same amount, converted by molar mass. Activity calls are given as the source filed them. The rule behind the calls is not given here. Where a SMILES comes first, the peptide text is derived from it.

Tests used:
Pseudomonas aeruginosa [1] = assay: Antibacterial activity against Pseudomonas aeruginosa ATCC 27853 incubated for 18 hrs by CLSI based broth dilution method; assay type: functional
Bacillus subtilis = assay: Antibacterial activity against Bacillus subtilis ATCC 23857 incubated for 18 hrs by CLSI based broth dilution method; assay type: functional
Acinetobacter baumannii = assay: Antibacterial activity against Acinetobacter baumannii ATCC 19606 incubated for 18 hrs by CLSI based broth dilution method; assay type: functional; conditions: ATCC 19606 = CIP 70.34 = JCM 6841
Pseudomonas aeruginosa [2] = assay: Antibacterial activity against Pseudomonas aeruginosa ATCC 27853 assessed as increase in MIC at sub-MIC level after 15 passages by broth microdilution assay; assay type: functional
Pseudomonas aeruginosa [3] = assay: Antibacterial activity against Pseudomonas aeruginosa ATCC 27853 incubated for 18 hrs in presence of EDTA by CLSI based broth dilution method; assay type: functional
Klebsiella pneumoniae [4] = assay: Antibacterial activity against Klebsiella pneumoniae ATCC 700603 incubated for 18 hrs by CLSI based broth dilution method; assay type: functional
Pseudomonas aeruginosa [5] = assay: Antibacterial activity against rifampin-resistant Pseudomonas aeruginosa ATCC 27853 incubated for 18 hrs in presence of EDTA by CLSI based broth dilution method; assay type: functional
Pseudomonas aeruginosa [6] = assay: Antibacterial activity against rifampin-resistant Pseudomonas aeruginosa ATCC 27853 incubated for 18 hrs by CLSI based broth dilution method; assay type: functional
Escherichia coli [7] = assay: Antibacterial activity against Escherichia coli ATCC 25922 incubated for 18 hrs by CLSI based broth dilution method; assay type: functional
Staphylococcus aureus [8] = assay: Antibacterial activity against Staphylococcus aureus ATCC 25923 incubated for 18 hrs by CLSI based broth dilution method; assay type: functional
Pseudomonas aeruginosa [9] = assay: Antibacterial activity against gentamicin-resistant Pseudomonas aeruginosa ATCC 27853 incubated for 18 hrs by CLSI based broth dilution method; assay type: functional
Enterococcus faecalis = assay: Antibacterial activity against Enterococcus faecalis ATCC 29212 incubated for 18 hrs by CLSI based broth dilution method; assay type: functional
[10] = tested on: Staphylococcus epidermidis; assay: Antibacterial activity against Staphylococcus epidermidis ATCC 12228 incubated for 18 hrs by CLSI based broth dilution method; assay type: functional
Staphylococcus aureus [11] = assay: Antibacterial activity against Staphylococcus aureus ATCC 25923 incubated with 0.2 to 0.02 ug/ml chymotrypsin for 6 hrs followed by bacterial addition and measured after 18 hrs by CLSI based broth dilution method; assay type: functional, organism-based; conditions: dose 0.2-0.02 µg/ml
Staphylococcus aureus [12] = assay: Antibacterial activity against Staphylococcus aureus ATCC 25923 incubated with 0.2 to 0.02 ug/ml trypsin for 6 hrs followed by bacterial addition and measured after 18 hrs by CLSI based broth dilution method; assay type: functional, organism-based; conditions: dose 0.2-0.02 µg/ml, time 23.0 hrs
Klebsiella pneumoniae [13] = assay: Antibacterial activity against Klebsiella pneumoniae ATCC 700603 incubated with 0.2 to 0.02 ug/ml trypsin for 6 hrs followed by bacterial addition and measured after 18 hrs by CLSI based broth dilution method; assay type: functional, organism-based; conditions: dose 0.2-0.02 µg/ml, time 23.0 hrs
Pseudomonas aeruginosa [14] = assay: Antibacterial activity against Pseudomonas aeruginosa ATCC 27853 at 0.5 to 4 times MIC incubated for 24 hrs by crystal violet staining based assay; assay type: functional, organism-based
[15] = Selectivity ratio of MHC10 for BALB/C mouse erythrocytes to MIC for fungi; assay type: toxicity
Cell membrane [16] = assay: Disruption of membrane integrity in Staphylococcus aureus ATCC 25923 assessed as membrane shrinking at 1 times MIC measured within 0.5 hrs by scanning electron microscopy; assay type: subcellular
Staphylococcus aureus [17] = assay: Bactericidal activity against Staphylococcus aureus ATCC 25923 at 2MIC by time-kill assay; assay type: functional, organism-based; conditions: time 24.0 hrs, TDE = time-dependent effect
Staphylococcus aureus [18] = assay: Disruption of bacterial cell membrane in Staphylococcus aureus ATCC 25923 assessed as increase in PI uptake incubated for 30 to 120 mins by FACS flow cytometry; assay type: functional, organism-based; conditions: time 30-120 min
Staphylococcus aureus [19] = assay: Antibacterial activity against Staphylococcus aureus ATCC 25923 at 0.5 to 1 times MIC incubated for 24 hrs by crystal violet staining based assay; assay type: functional, organism-based
Pseudomonas aeruginosa [20] = assay: Synergistic antibacterial activity against Pseudomonas aeruginosa ATCC 27853 at 2 times MIC incubated for 18 to 24 hrs in presence of 2 times MIC of polymyxin B by broth microdilution assay based checkerboard assay; assay type: functional; conditions: time 18-24 hrs
Bacteria [21] = assay: Antibacterial activity against Gram-positive bacteria incubated for 18 hrs by CLSI based broth dilution method; assay type: functional
[22] = Selectivity ratio of MHC10 for BALB/C mouse erythrocytes to MIC for gram positive bacteria; assay type: toxicity
Escherichia coli [23] = assay: Antibiofilm activity against Escherichia coli ATCC 25922 at 4 times MIC incubated for 24 hrs by crystal violet staining based assay; assay type: functional, organism-based
[24] = Selectivity ratio of MHC10 for BALB/C mouse erythrocytes to MIC for bacteria; assay type: toxicity
[25] = Cytotoxicity against human glomerular mesangial cells incubated for 12 hrs by MTT assay; assay type: cell-based; conditions: Glomerular mesangial cell
Bacteria [26] = assay: Antibacterial activity against Gram-negative bacteria incubated for 18 hrs by CLSI based broth dilution method; assay type: functional
Cell membrane [27] = assay: Disruption of membrane integrity in Staphylococcus aureus ATCC 25923 assessed as bacterial death at 1 times MIC measured within 0.5 hrs by scanning electron microscopy; assay type: subcellular
[28] = Selectivity ratio of MHC10 for BALB/C mouse erythrocytes to MIC for gram-negative bacteria; assay type: toxicity
Klebsiella pneumoniae [29] = assay: Antibiofilm activity against Klebsiella pneumoniae ATCC 700603 at 2 to 4 times MIC incubated for 24 hrs by crystal violet staining based assay; assay type: functional, organism-based
Staphylococcus aureus [30] = assay: Disruption of membrane integrity in Staphylococcus aureus ATCC 25923 assessed as membrane blebbing at 1 times MIC measured within 0.5 hrs by scanning electron microscopy; assay type: functional, organism-based
Klebsiella pneumoniae [31] = assay: Bactericidal activity against Klebsiella pneumoniae 700603 at 2MIC by time-kill assay relative to control; assay type: functional; conditions: 2M, TDE = time-dependent effect
Klebsiella pneumoniae [32] = assay: Antibacterial activity against Klebsiella pneumoniae ATCC 700603 incubated with 0.2 to 0.02 ug/ml chymotrypsin for 6 hrs followed by bacterial addition and measured after 18 hrs by CLSI based broth dilution method; assay type: functional, organism-based; conditions: dose 0.2-0.02 µg/ml, time 23.0 hrs
Bacteria [33] = assay: Antibacterial activity against bacteria incubated for 18 hrs by CLSI based broth dilution method; assay type: functional
Erythrocyte = assay: Hemolytic activity in BALB/C mouse erythrocytes incubated for 1 hr by absorbance method; assay type: ADME, cell-based
[34] = Stability in BALB/C mouse serum measured up to 1440 mins by HPLC analysis; assay type: ADME, cell-free
Fungi = assay: Antibacterial activity against fungi incubated for 18 hrs by CLSI based broth dilution method; assay type: functional
Cell membrane [35] = assay: Induction of inner membrane permeabilization in Klebsiella pneumoniae ATCC 700603 at 0.5 to 4MIC using ONPG as substrate by spectroscopic method; assay type: subcellular; conditions: Klebsiella pneumoniae 700603, 0.5 to 4M
[36] = Stability in BALB/C mouse serum assessed as compound degradation time measured up to 1440 mins by HPLC analysis; assay type: ADME, cell-free; conditions: 24 h

For `CO[C@H]1/C=C/O[C@@]2(C)Oc3c(C)c(O)c4c(O)c(c(/C=N/N5CCN(C)CC5)c(O)c4c3C2=O)NC(=O)/C(C)=C\C=C\[C@H](C)[C@H](O)[C@@H](C)[C@@H](O)[C@@H](C)[C@H](OC(C)=O)[C@@H]1C` [RIFAMPIN], which MIC (Pseudomonas aeruginosa [1]) is on record?
Its MIC is 4 µM (≈ 3.29 µg/mL).

And the MIC (Bacillus subtilis)?
Its MIC is under 1 µM.

And the MIC (Acinetobacter baumannii)?
Its MIC is under 1 µM.

And the “fold change (FC)” value (Pseudomonas aeruginosa [2])?
The value was 128.

What about the MIC (Pseudomonas aeruginosa [3]) of the same compound?
Its MIC is 2 µM.

And the MIC (Klebsiella pneumoniae [4])?
Its MIC is 32 µM (≈ 26.3 µg/mL).

And the MIC (Pseudomonas aeruginosa [5])?
The MIC was 2050 µM.

And the MIC (Pseudomonas aeruginosa [6])?
The MIC was 2050 µM (≈ 1690 µg/mL).

And the MIC (Escherichia coli [7])?
The MIC was 4 µM (≈ 3.29 µg/mL).

And the MIC (Staphylococcus aureus [8])?
Its MIC is under 1 µM.

What about the MIC (Pseudomonas aeruginosa [9]) of the same compound?
The MIC was 32 µM (≈ 26.3 µg/mL).

And the MIC (Enterococcus faecalis)?
The MIC was under 1 µM.

What about the MIC [10] of the same compound?
Its MIC is under 1 µM.

For `CC[C@H](C)[C@H](NC(=O)[C@H](CCCNC(=N)N)NC(=O)[C@H](CCCCN)NC(=O)[C@H](CC(C)C)NC(=O)[C@H](CC(C)C)NC(=O)CN)C(=O)N[C@@H](CCCCN)C(=O)N[C@H](C(=O)N[C@@H](CC(C)C)C(=O)N[C@@H](CC(C)C)C(N)=O)[C@@H](C)O` [ANOPLIN] (H-GLLKRIKTLL-NH2), which Activity (Staphylococcus aureus [11]) is on record?
Its Activity is “inactive”.

What about the Activity (Staphylococcus aureus [12]) of the same compound?
Its Activity is “Active”.

And the Activity (Klebsiella pneumoniae [13])?
Its Activity is “Active”.

And the MIC (Pseudomonas aeruginosa [1])?
Its MIC is 8 µM (≈ 9.23 µg/mL).

And the Activity (Pseudomonas aeruginosa [14])?
The Activity was “inactive”.

And the MIC (Bacillus subtilis)?
Its MIC is 8 µM (≈ 9.23 µg/mL).

And the selectivity ratio [15]?
The selectivity ratio was 6.73.

What about the MIC (Acinetobacter baumannii) of the same compound?
The MIC was at least 512 µM.

What about the Activity (Cell membrane [16]) of the same compound?
Its Activity is “inactive”.

And the Activity (Staphylococcus aureus [17])?
Its Activity is “Tde”.

What about the Activity (Staphylococcus aureus [18]) of the same compound?
Its Activity is “Active”.

And the Activity (Staphylococcus aureus [19])?
The Activity was “Active”.

What about the FIC (Pseudomonas aeruginosa [20]) of the same compound?
Its FIC is 0.5625.

And the MIC (Bacteria [21])?
Its MIC is 64 µM (≈ 73.8 µg/mL).

What about the selectivity ratio at 18 h [22] of the same compound?
Its selectivity ratio at 18 h is 8.

And the Activity (Escherichia coli [23])?
The Activity was “Active”.

What about the selectivity ratio [24] of the same compound?
The selectivity ratio was 6.73.

And the IC50 [25]?
The IC50 was at least 512 µM.

What about the MIC (Bacteria [26]) of the same compound?
The MIC was 90.5 µM (≈ 104 µg/mL).

And the Activity (Cell membrane [27])?
Its Activity is “inactive”.

And the selectivity ratio [28]?
The selectivity ratio was 5.66.

And the Activity (Klebsiella pneumoniae [29])?
Its Activity is “Active”.

What about the Activity (Staphylococcus aureus [30]) of the same compound?
Its Activity is “inactive”.

What about the MIC (Klebsiella pneumoniae [4]) of the same compound?
The MIC was 128 µM (≈ 148 µg/mL).

And the Activity (Klebsiella pneumoniae [31])?
Its Activity is “Tde”.

And the Activity (Klebsiella pneumoniae [32])?
The Activity was “Active”.

What about the MIC (Bacteria [33]) of the same compound?
The MIC was 76.1 µM (≈ 87.8 µg/mL).

What about the MHC10 (Erythrocyte) of the same compound?
Its MHC10 is “>= 512 uM”.

What about the MIC (Escherichia coli [7]) of the same compound?
The MIC was 128 µM (≈ 148 µg/mL).

What about the MIC (Staphylococcus aureus [8]) of the same compound?
The MIC was 256 µM (≈ 295 µg/mL).

What about the half-life [34] of the same compound?
The half-life was 2.24 h.

What about the MIC (Fungi) of the same compound?
Its MIC is 76.1 µM (≈ 87.8 µg/mL).

And the MIC (Enterococcus faecalis)?
The MIC was at least 512 µM.

And the MIC [10]?
The MIC was 16 µM (≈ 18.5 µg/mL).

What about the Activity (Cell membrane [35]) of the same compound?
Its Activity is “inactive”.

And the Time [36]?
The Time was 12.14 min.
